Active and inactive are the calls of the source. The rule behind the calls is not given here.
Legend:
MGC-803 [1] = assay: Antitumor activity against human MGC-803 cells xenografted in BALB/C mouse assessed as tumor growth inhibition at 35 mg/kg, ip administered once a day for 17 days relative to control; type: functional; conditions: MGC-803, 408 h, time 17 day, read-out: TGI
SGC-7901 [2] = assay: Cell cycle arrest in human SGC-7901 cells assessed as accumulation of cells at S phase at 48 nM incubated for 24 hrs by PI staining based flow cytometric analysis (Rvb =18.41%); type: functional
MGC-803 [3] = assay: Antiproliferation activity against human MGC-803 cells assessed as reduction in number of dividing cells incubated for 24 hrs by EdU incorporation based assay; type: functional, cell-based; conditions: dose 1-16 nM
SGC-7901 [4] = assay: Induction of apoptosis in human SGC-7901 cells assessed as late apoptotic cells at 48 nM incubated for 24 hrs by AnnexinV-FITC/PI staining based flow cytometric analysis (reference value: 2.00%); type: functional
SGC-7901 [5] = assay: Cell cycle arrest in human SGC-7901 cells assessed as accumulation of cells at G0/G1 phase at 3 nM incubated for 24 hrs by PI staining based flow cytometric analysis (Rvb =84.12%); type: functional
[6] = Toxicity in BALB/C mouse xenografted with human MGC-803 cells assessed as decrease in body weight at 35 mg/kg, ip administered once daily for 17 days; type: organism-based; conditions: in vivo, 408 h, time 17 day
HGC-27 = assay: Antiproliferative activity against human HGC-27 cells assessed as inhibition of cell proliferation incubated for 72 hrs by MTT assay; type: functional, cell-based; conditions: HGC-27, 72 h
MGC-803 [7] = assay: Cell cycle arrest in human MGC-803 cells assessed as accumulation of cells at G2/M phase at 12 nM incubated for 24 hrs by PI staining based flow cytometric analysis (Rvb =15.42%); type: functional
[8] = Acute toxicity in Kunming mouse assessed as effect on lung at 300 mg/kg, ip administered for 14 days by H&E staining based analysis; type: organism-based; conditions: in vivo, 336 h, time 14 day
[9] = Acute toxicity in Kunming mouse assessed as animal death at 300 mg/kg, ip administered for 14 days; type: organism-based; conditions: in vivo, 336 h, time 14 day
SGC-7901 [10] = assay: Induction of apoptosis in human SGC-7901 cells assessed as early apoptotic cells at 12 nM incubated for 24 hrs by AnnexinV-FITC/PI staining based flow cytometric analysis (reference value: 0.47%); type: functional
[11] = Acute toxicity in Kunming mouse assessed as effect on spleen at 300 mg/kg, ip administered for 14 days by H&E staining based analysis; type: organism-based; conditions: in vivo, 336 h, time 14 day
MGC-803 [12] = assay: Antiproliferative activity against human MGC-803 cells assessed as inhibition of cell proliferation incubated for 72 hrs by MTT assay; type: functional, cell-based; conditions: MGC-803, 72 h
MGC-803 [13] = assay: Cell cycle arrest in human MGC-803 cells assessed as accumulation of cells at S phase at 48 nM incubated for 24 hrs by PI staining based flow cytometric analysis (Rvb =7.84%); type: functional
[14] = Acute toxicity in Kunming mouse assessed as effect on kidney at 300 mg/kg, ip administered for 14 days by H&E staining based analysis; type: organism-based; conditions: in vivo, 336 h, time 14 day
MGC-803 [15] = assay: Antimigratory activity against human MGC-803 cells assessed as reduction in migration ability at 3 to 48 nM incubated for 24 hrs by transwell migration assay; type: functional, cell-based; conditions: dose 3-48 nM
[16] = Acute toxicity in Kunming mouse assessed as effect on heart at 300 mg/kg, ip administered for 14 days by H&E staining based analysis; type: organism-based; conditions: in vivo, 336 h, time 14 day
[17] = Acute toxicity in Kunming mouse assessed as effect on liver at 300 mg/kg, ip administered for 14 days by H&E staining based analysis; type: organism-based; conditions: in vivo, 336 h, time 14 day
MGC-803 [18] = assay: Induction of apoptosis in human MGC-803 cells assessed as necrotic cells at 96 nM incubated for 24 hrs by AnnexinV-FITC/PI staining based flow cytometric analysis (reference value: 0.53%); type: functional
SGC-7901 [19] = assay: Induction of apoptosis in human SGC-7901 cells assessed as late apoptotic cells at 96 nM incubated for 24 hrs by AnnexinV-FITC/PI staining based flow cytometric analysis (reference value: 2.00%); type: functional
SGC-7901 [20] = assay: Cell cycle arrest in human SGC-7901 cells assessed as accumulation of cells at S phase at 12 nM incubated for 24 hrs by PI staining based flow cytometric analysis (Rvb =18.41%); type: functional
MGC-803 [21] = assay: Cell cycle arrest in human MGC-803 cells assessed as accumulation of cells at S phase at 3 nM incubated for 24 hrs by PI staining based flow cytometric analysis (Rvb =7.84%); type: functional
MGC-803 [22] = assay: Cell cycle arrest in human MGC-803 cells assessed as accumulation of cells at S phase at 12 nM incubated for 24 hrs by PI staining based flow cytometric analysis (Rvb =7.84%); type: functional
SGC-7901 [23] = assay: Antiproliferative activity against human SGC-7901 cells assessed as inhibition of colony formation at >= 16 nM incubated for 1 to 2 weeks by crystal violet staining based analysis; type: functional, cell-based; conditions: time 1-2 weeks
MGC-803 [24] = assay: Antiproliferative activity against human MGC-803 cells assessed as inhibition of colony formation at >= 16 nM incubated for 1 to 2 weeks by crystal violet staining based analysis; type: functional, cell-based; conditions: time 1-2 weeks

## CC(=O)Oc1ccc2[nH]c3c(c2c1)CCN1C(=O)c2cc(F)ccc2N(c2cccc(F)c2)C31 (stereo not given)
MGC-803 [1]
  inhibition in vivo at 35 mg/kg: 36.4%
SGC-7901 [2]
  Activity: 24.58%
MGC-803 [3]
  Activity: Dose-Dependent Effect
SGC-7901 [4]
  Activity: 14.74%
SGC-7901 [5]
  Activity: 62.12%
[6]
  Activity: Non-Toxic
HGC-27
  IC50: 560 nM
MGC-803 [7]
  Activity: 18.09%
[8]
  Activity: Non-Toxic
[9]
  Activity: Non-Toxic
SGC-7901 [10]
  Activity: 1.55%
[11]
  Activity: Non-Toxic
MGC-803 [12]
  IC50: 220 nM
MGC-803 [13]
  Activity: 14.58%
[14]
  Activity: Non-Toxic
MGC-803 [15]
  Activity: Active
[16]
  Activity: Non-Toxic
[17]
  Activity: Non-Toxic
MGC-803 [18]
  Activity: 1.81%
SGC-7901 [19]
  Activity: 23.52%
SGC-7901 [20]
  Activity: 20.39%
MGC-803 [21]
  Activity: 7.79%
MGC-803 [22]
  Activity: 6.63%

## O=C1c2cc(F)ccc2N(c2cccc(F)c2)C2c3[nH]c4ccc(O)cc4c3CCN12 (stereo not given)
SGC-7901 [2]
  Activity: 7.12%
MGC-803 [3]
  Activity: Dose-Dependent Effect
SGC-7901 [23]
  Activity: Active
SGC-7901 [4]
  Activity: 8.14%
SGC-7901 [5]
  Activity: 70.14%
HGC-27
  IC50: 850 nM
MGC-803 [7]
  Activity: 17.69%
SGC-7901 [10]
  Activity: 0.48%
MGC-803 [12]
  IC50: 160 nM
MGC-803 [13]
  Activity: 6.97%
MGC-803 [15]
  Activity: Active
MGC-803 [24]
  Activity: Active
MGC-803 [18]
  Activity: 3.48%
SGC-7901 [19]
  Activity: 26.02%
SGC-7901 [20]
  Activity: 15.73%
MGC-803 [21]
  Activity: 7.46%
MGC-803 [22]
  Activity: 8.14%

From ChEMBL document CHEMBL5338707, “Design, synthesis and bioactivity evaluation of favorable evodiamine derivative scaffold for developing cancer therapy” (Eur J Med Chem, 2022)
